From US20190119282A1, “IMIDAZOPYRIDAZINES USEFUL AS INHIBITORS OF THE PAR-2 SIGNALING PATHWAY” (Vertex Pharmaceuticals Incorporated, priority 2013, published 2019)

Tests used:
[1] = system: Thrombin-stimulated Ca2+ response in HT-29 cells; assay: Ca FLIPR TETRA assay, ANTAGONIST mode, stimulation with 1 U/mL Thrombin; format: cell-based, human; conditions: HT-29 cells, stimulation with 1 U/mL Thrombin
Procedure: (§1) Example 60: Protocol for Testing PAR2 Compounds in ANTAGONIST Mode Using the Ca FLIPR^TETRA Assay (384 Well)
(§2) 23000 HT-29 cells (ATCC# HTB-38) were plated in 384-well black, transparent-flat bottom plates and incubated in 25 uL of 1% FBS/McCoy's media ON at 37° C. under an atmosphere of 5% CO2. The following day, 25 uL FLIPR calcium 5 Molecular Devices assay reagent (Cat: R-8186) was added. Plates were incubated at 37° C. and r. t. for 45 min and 15 min, respectively. Compounds dilutions were prepared in 100% DMSO using a Biomek FX and diluted 20-fold in HBSS and then 5.5 uL was added directly to the cells by the FLIPR^TETRA (10× dilution) using FLIPR Tetra Pipette tips, black, non-sterile, 384 Molecular Devices (Cat: 9000-0764).
(§3) A first read was performed to determine whether the test compounds on their own can activate Ca2+ responses.
(§4) The cells were incubated with the compounds for 30 min at r. t. and then read in ANTAGONIST mode in the same plate by stimulating with 6.2 uL of a fixed concentration of the activator: final concentrations: 8 μM SLIGKV, 1 U/mL Thrombin, 3.1 U/mL trypsin, or 0.6 μM UTP.

[2] = system: UTP-stimulated Ca2+ response in HT-29 cells; assay: Ca FLIPR TETRA assay, ANTAGONIST mode, stimulation with 0.6 μM UTP; format: cell-based, human; conditions: for IC50: Homo sapiens, HT-29 cells, stimulation with 0.6 μM UTP
Procedure: as §1, §2, §3, §4

[3] = molecular target: T1, PAR2 (HT-29 cells, SLIGKV activation) (Homo sapiens, UniProt P55085); assay: Ca FLIPR TETRA assay, ANTAGONIST mode, stimulation with 8 μM SLIGKV; format: cell-based; conditions: for IC50: HT-29 cells; for SLIGKV % @ concentration: @ 1.9 (μM)
T1 construct: host or cells: HT-29 cells
T1 sequence (P55085 26-397): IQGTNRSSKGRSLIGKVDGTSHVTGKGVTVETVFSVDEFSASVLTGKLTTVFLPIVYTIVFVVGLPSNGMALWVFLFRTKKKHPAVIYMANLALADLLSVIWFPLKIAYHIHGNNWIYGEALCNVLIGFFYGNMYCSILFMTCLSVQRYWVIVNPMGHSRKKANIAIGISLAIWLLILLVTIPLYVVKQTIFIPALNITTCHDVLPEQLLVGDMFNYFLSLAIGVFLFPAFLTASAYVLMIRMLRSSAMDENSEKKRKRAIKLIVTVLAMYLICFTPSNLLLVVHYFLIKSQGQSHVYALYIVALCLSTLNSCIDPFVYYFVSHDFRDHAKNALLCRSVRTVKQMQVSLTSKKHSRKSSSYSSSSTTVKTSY
Procedure: as §1, §2, §3, §4

[4] = molecular target: T2, PAR2 (HT-29 cells, trypsin activation) (Homo sapiens, UniProt P55085); assay: Ca FLIPR TETRA assay, ANTAGONIST mode, stimulation with 3.1 U/mL trypsin; format: cell-based; conditions: HT-29 cells
T2 construct: host or cells: HT-29 cells
T2 sequence (P55085 26-397): T1 sequence (P55085 26-397)
Procedure: as §1, §2, §3, §4

[5] = antagonist mode, stimulation with 3.1 U/mL trypsin
[6] = antagonist mode, stimulation with 8 μM SLIGKV

Row | IC50 ([1]; Homo sapiens) [µM] | IC50 ([3]; Table 6, 8 μM SLIGKV) [µM] | IC50 ([4]; Table 6, 3.1 U/mL trypsin) [µM] | SMILES | other results
1 |  | 50 | 46 | O=C(c1cn2nc(-c3ccc(F)cc3)cc(C(F)(F)F)c2n1)N1CCN(Cc2ccccn2)CC1 [Compound I-581] | 
2 |  | 50 | > 50 | N#Cc1cccnc1N1CCN(C(=O)c2cn3nc(-c4ccc(F)cc4)cc(C(F)(F)F)c3n2)CC1 [Compound I-582] | 
3 |  | 23 | > 50 | O=C(c1cn2nc(-c3ccc(F)cc3)cc(C(F)(F)F)c2n1)N1CCN(CCn2ccnc2)CC1 [Compound I-583] | 
4 |  | 22 | 2 | CCC(=O)N1CCN(C(=O)c2cn3nc(-c4ccc(F)cc4)cc(C(F)(F)F)c3n2)CC1 [Compound I-584] | 
5 |  | 27 | 24 | Cc1cc(-c2ccc(F)cc2)nn2cc(C(=O)N3CCC4(COC4)C3)nc12 [Compound I-585] | 
6 |  | 13 | 19 | Cc1cc(-c2ccc(F)cc2)nn2cc(C(=O)N3CCCC4(COC4)C3)nc12 [Compound I-586] | 
7 |  | 25 | 19 | CC(C)c1cc(-c2ccc(F)cc2)nn2cc(C(=O)N3CCCCC34COC4)nc12 [Compound I-587] | 
8 |  | 37 | > 50 | CC(C)c1cc(Cl)nn2cc(C(=O)N3CCN(C(=O)C4(O)CCOCC4)CC3(C)C)nc12 [Compound I-588] | 
9 |  | 27 | > 50 | CC(C)c1cc(Cl)nn2cc(C(=O)N3CCN(C(=O)C4(O)CCC4)CC3(C)C)nc12 [Compound I-589] | 
10 |  | 20 | > 50 | CC(C)c1cc(C2CCOCC2)nn2cc(C(=O)N3CCN(C(=O)C4(O)CCC4)CC3(C)C)nc12 [Compound I-590] | 

Further lines, the molecule ahead of its results:

Row | SMILES | IC50 ([1]; Homo sapiens) [µM] | IC50 ([3]; Table 6, 8 μM SLIGKV) [µM] | IC50 ([4]; Table 6, 3.1 U/mL trypsin) [µM] | other results
11 | O=C(c1cn2nc(-c3ccc(F)cc3)cc(C(F)(F)F)c2n1)N1CCCCCC1 [Compound I-7, Azepan-1-yl-[6-(4-fluorophenyl)-8-(trifluoromethyl)imidazo[1,2-b]pyridazine-2-yl]methanone] | > 50 |  |  | IC50 [2]: > 50 µM; IC50 ([3]; stimulation with 8 μM SLIGKV): 0.089 µM
12 | CCOC1CCN(C(=O)c2cn3nc(-c4ccc(F)cc4)cc(C(F)(F)F)c3n2)CC1 [Compound I-48] | > 50 |  |  | IC50 [2]: > 50 µM; SLIGKV % @ concentration [3]: 51% @ 1.9
13 | O=C1NCCN2CCN(C(=O)c3cn4nc(-c5ccc(F)cc5)cc(C(F)(F)F)c4n3)CC12 (stereo not shown) [Compound I-58] | > 50 |  |  | IC50 [2]: > 50 µM; IC50 ([3]; stimulation with 8 μM SLIGKV): 1.3 µM
14 | C[C@H]1CCCCN1C(=O)c1cn2nc(-c3ccc(F)cc3)cc(C(F)(F)F)c2n1 [Compound I-65] | > 50 |  |  | IC50 [2]: > 50 µM; SLIGKV % @ concentration [3]: 56% @ 1.9
15 | O=C(c1cn2nc(-c3ccc(F)cc3)cc(C(F)(F)F)c2n1)N1CCCCC1c1nccs1 (stereo not shown) [Compound I-73] | 1.7 |  |  | IC50 ([4]; stimulation with 3.1 U/mL trypsin): 0.92 µM; IC50 ([3]; stimulation with 8 μM SLIGKV): 0.74 µM
16 | CC(C)(C)OC(=O)NC1CCN(C(=O)c2cn3nc(-c4ccc(F)cc4)cc(C(F)(F)F)c3n2)CC1 [Compound I-74] | > 50 |  |  | UTP % @ concentration ([2]; @ 50 (μM)): 62% @ 50; IC50 ([3]; stimulation with 8 μM SLIGKV): 0.48 µM
17 | CN(C(=O)OC(C)(C)C)C1CCN(C(=O)c2cn3nc(-c4ccc(F)cc4)cc(C(F)(F)F)c3n2)CC1 [Compound I-77] | > 50 |  |  | IC50 [2]: > 50 µM; IC50 ([3]; stimulation with 8 μM SLIGKV): 0.68 µM
18 | CC(C)(C)c1cc(-c2ccc(F)cc2)nn2cc(C(=O)N3CCC(O)CC3(C)C)nc12 (stereo not shown) [Compound I-484, (8-(tert-butyl)-6-(4-fluorophenyl)imidazo[1,2-b]pyridazin-2-yl)(4-hydroxy-2,2-dimethylpiperidin-1-yl)methanone] |  |  |  | IC50 ([1]; Homo sapiens, antagonist mode): > 1 µM; IC50 [4, 5]: 0.0096 µM; IC50 [3, 6]: 0.0028 µM
19 | COC(=O)C1CC(C(=O)N2CCN(C(=O)c3cn4nc(-c5ccc(F)cc5)cc(C(C)(C)C)c4n3)C(C)(C)C2)C1 (stereo not shown) [Compound I-538] |  |  |  | IC50 ([1]; antagonist mode): > 1 µM; IC50 [4, 5]: 0.0009 µM; IC50 [3, 6]: 0.0008 µM
20 | C[C@H]1CN(C(=O)c2cn3nc(-c4ccc(F)cc4)c(C(F)(F)F)cc3n2)CCN1C(=O)OCc1ccccc1 [Compound I-580] |  | 23 |  | Trypsin % @ 50 ([4]; Table 6, @ 50 (μM), 3.1 U/mL trypsin): 48% @ 50
